Measurements reported in US12522582B2 (Gilead Sciences, Inc., priority 2022, dated 2026).

What was measured:
[1] = test system: HSV-2 virus (MS strain); assay: HSV qPCR Assay (HSV replication in ARPE-19 cells); details: Human alphaherpesvirus 2, ARPE-19, read-out: EC50-HSV2-qPCR
Method: HSV replication in the presence or absence of compounds was measured by qPCR according to the following procedure: DMSO stock compound solutions (1-10 mM) were serially diluted (2.5-fold) in DMSO in clear round bottom 96-well plates. Compounds were then diluted 1:20 in assay medium (DMEM/F12 Glutamax+2% Fetal bovine serum+1% Penicillin Streptomycin) and 10 μL of these dilutions were added to 96-well tissue culture plates for final starting concentrations between 0.5 and 5 μM.
Cells were resuspended in assay medium, counted, and cell density was adjusted to 2.8E+05 cells/ml with assay medium. […] 90 μL of the infection suspension (25,000 cells) were added to assay plates in which compounds were already added. After an overnight incubation at 37° C., cell culture medium was removed, and cell lysis was performed using the prepGEM Universal kit (MicroGEM cat #PUN1000). Specifically, 100 μL of prepGEM master mix (94.75 μL Water, 5 μL buffer, 0.25 μL enzyme stock) were added to each well and plates were incubated at room temperature for 15 minutes, with the 5 last minutes on a plate shaker. The cell lysates were then transferred to a 96-well PCR compatible microplate (Applied Biosystems, Cat #N8010560). Plates were sealed with a heat resistant plastic sealer and heated on a thermal cycler using the following conditions: 75° C. for 10 min, 95° C. for 5 minutes. Finally, plates were cooled down to room temperature with light shaking before proceeding to the qPCR setup.
Plates were sealed with a clear sealer, spun down, and qPCR reactions were performed in an Applied Biosystems Quantstudio 7 Flex instrument using the following conditions: 95° C. for 2 minutes, then 40 cycles alternating between 95° C. for 5 seconds and 60° C. for 30 seconds.
Analysis was performed using dCT method where dCT=CT (test)−CT (DMSO). Fold change was calculated using the 2^^dCT equation. This fold change was then converted to percentage relative to DMSO control (no drug). EC50s were determined by non-linear regression analysis using GraphPad Prism software.

[2] = test system: human cryopreserved hepatocytes; assay: Stability Assay in Cryopreserved Hepatocytes (human); assay type: in vitro ADME; details: 1 μM, calculated from half-life using the well-stirred model
Method: Test compound was incubated at 1 μM with either rat or human cryopreserved hepatocytes (BioIVT, Westbury, NY) up to 6 hours at 37° C. in a 24-well plate format (1×10^6 cells/mL per well). At specified time points, samples were transferred to a 96-well plate and quenched with 2 volumes of a solution containing 90% acetonitrile 10% methanol 0.1% formic acid and internal standard. Sample plate was centrifuged at 3200 rpm for 15 min and supernatants transferred to a new plate containing half volume of water. The resulting solution was analyzed by LC-MS/MS. Data (analyte to internal standard peak area ratio) was plotted on a semi-log scale and fitted using an exponential fit. Assuming first order kinetics, the half-life (t1/2) and rate of metabolism were determined. Predicted hepatic clearance was calculated from the half-life using the well-stirred model.

[3] = MT-4 CC50 Assay (CellTiter Glo); assay type: cell-based; details: human, MT-4 cells, luminescence, read-out: CC50-MT4
Method: Compounds were tested in 384-well plates: 18 compounds in duplex. Compounds were diluted in 7 points, 3-fold with DMSO by Bravo. Assay plate, which contains 20 uL medium with compounds, was seeded 2000 MT-4 cells in 20 uL/well by Multi-drop to start the assay. The plate was incubated at 37° C. for 5 days. On 6th day, the CellTiter Glo 40 uL was added in each well. Luminescence was read by Victor II.

[4] = test system: HSV-2 virus (MS strain); assay: HSV-2 Cellomics Assay (immunofluorescence of HSV protein gD in infected ARPE-19 cells); details: Human alphaherpesvirus 2, ARPE-19, 16 h
[5] = molecular target: hCAII (Homo sapiens (Human), UniProt P00918); assay: Carbonic Anhydrase (Esterase) Biochemical Assay, hCAII; details: read-out: IC50-hCAII; 4-nitrophenyl acetate hydrolysis, 60 min
Method: 10-dose, 3-fold serial dilutions of compounds were prepared at starting concentrations of 10 mM in 100% DMSO. […] Final starting concentration in the assay was 50 μM. DMSO (no compound) and acetazolamide were included on each microplate as negative and positive controls, respectively.
Following a preincubation at room temperature for 15 minutes, 20 μl of a 4 mM solution of 4NPA substrate (Sigma cat #N8130) in assay buffer were added to start the reaction.

[6] = read-out: EC50-HSV2-10% Human Serum

SMILES	EC50 [1] [µM]	Predicted human hepatic clearance [2] [mL/min/kg]	CC50 at 5 days [3] [µM]	EC50 [4, 6] [µM]	EC50 ([4]; read-out: EC50-HSV2-FBS) [µM]	IC50 [5] [µM]
NS(=O)(=O)c1cc2c(cc1F)CCN2C(=O)[C@@H]1Cc2ccc(-c3ccccn3)cc2O1 [Example 65, (S)-5-fluoro-1-(6-(pyridin-2-yl)-2,3-dihydrobenzofuran-2-carbonyl)indoline-6-sulfonamide]	0.0014	0.83	≥ 10	0.147	0.016	–
C[C@H]1Cc2cc(F)c(S(N)(=O)=O)cc2N1C(=O)[C@@H]1Cc2ccc(-c3ccccn3)cc2C1 [Example 34]	–	3.33	–	1.57	0.158	–
NS(=O)(=O)c1ccc2c(c1)N(C(=O)[C@@H]1Cc3ccc(-c4ccncn4)cc3C1)CC2 [Example 129, (R)-1-(5-(pyrimidin-4-yl)-2,3-dihydro-1H-indene-2-carbonyl)indoline-6-sulfonamide]	–	17.5	–	7.61	0.231	–
NS(=O)(=O)c1ccc2c(c1)N(C(=O)[C@@H]1Cc3ccc(-c4ncccc4F)cc3C1)CC2 [Example 89, (R)-1-(5-(3-fluoropyridin-2-yl)-2,3-dihydro-1H-indene-2-carbonyl)indoline-6-sulfonamide]	–	0.83	0.308	1.96	0.023	–
NS(=O)(=O)c1cc2c(cc1F)C[C@H](CF)N2C(=O)[C@@H]1Cc2ccc(-c3ccccn3)cc2C1 [Example 126, (R)-5-fluoro-2-(fluoromethyl)-1-((R)-5-(pyridin-2-yl)-2,3-dihydro-1H-indene-2-carbonyl)indoline-6-sulfonamide]	0.0567	2.67	–	≥ 10	≥ 1	–
NS(=O)(=O)c1ccc2c(c1)N(C(=O)C1Cc3ccc(-c4nccnc4F)cc3C1)CC2 (stereo not drawn) [Example 73]	0.0175	–	–	6.04	0.129	≥ 25
NS(=O)(=O)c1cc2c(cc1Cl)CCN2C(=O)C1Cc2ccc(-c3ccccn3)cc2C1 (stereo not drawn) [Example 5]	0.0109	–	–	≥ 25	0.035	≥ 25
C[C@@H]1Cc2cc(F)c(S(N)(=O)=O)cc2N1C(=O)[C@@H]1Cc2ccc(-c3ccccn3)cc2C1 [Example 35]	0.0011	0.917	24	0.0575	0.007	–
C[C@@H]1Cc2ccc(S(N)(=O)=O)cc2N1C(=O)[C@@H]1Cc2ccc(-c3ccccn3)cc2C1 [Example 15]	0.0049	0.933	≥ 50	0.276	0.028	–
C[C@@H]1Cc2cc(F)c(S(N)(=O)=O)cc2N1C(=O)[C@@H]1Cc2ccc(-c3cc(F)ccc3F)cc2C1 [Example 61, (R)-1-((R)-5-(2,5-difluorophenyl)-2,3-dihydro-1H-indene-2-carbonyl)-5-fluoro-2-methylindoline-6-sulfonamide]	–	2.5	≥ 10	0.169	0.028	–
C[C@H]1c2ccc(-c3ccccn3)cc2C[C@@H]1C(=O)N1C[C@@H](C(F)(F)F)c2cc(F)c(S(N)(=O)=O)cc21 [Example 138, (S)-5-fluoro-1-((1R,2S)-1-methyl-5-(pyridin-2-yl)-2,3-dihydro-1H-indene-2-carbonyl)-3-(trifluoromethyl)indoline-6-sulfonamide]	0.002	1	–	0.184	0.0234	–
C[C@H]1c2ccc(-c3ccccn3)cc2C[C@@H]1C(=O)N1CCc2ccc(S(N)(=O)=O)cc21 [Example 94, 1-((1R,2S)-1-methyl-5-(pyridin-2-yl)-2,3-dihydro-1H-indene-2-carbonyl)indoline-6-sulfonamide]	0.0039	–	≥ 50	0.195	0.049	≥ 50
NS(=O)(=O)c1cc2c(cc1F)CCN2C(=O)[C@@H]1Cc2ccc(-c3cc(F)ccc3F)cc2C1 [Example 58, (R)-1-(5-(2,5-difluorophenyl)-2,3-dihydro-1H-indene-2-carbonyl)-5-fluoroindoline-6-sulfonamide]	–	5.33	≥ 10	4.31	0.012	–
